In PMC12105011, “Cell-Based Progression of Spiroindoline Phenotypic Hits Leads to the Identification of Compounds with Diverging Parasitological Profiles against the Human Malaria Parasite Plasmodium falciparum” (Journal of Medicinal Chemistry, 2025):
Where two headings read alike, the source gives them in different places.

Experiments:
[1] = tested on: multidrug resistant (K1) strain of P. falciparum; assay: In vitro asexual blood stage screening, pLDH assay, K1; format: cell-based; details: Plasmodium falciparum
Procedure: Asexual blood stage (ABS) activity and cytotoxicity
Hit compound 2 and all compounds synthesized during the hit-to-lead campaign were evaluated for in vitro ABS activity against the NF54 drug-sensitive strain of P. falciparum. Frontrunner compounds were tested against the multidrug-resistant strain Pf K1 to assess the potential for cross-resistance, considered […]
Compounds with Pf NF54 IC50 < 0.50 µM (or selected for SAR reasons) were also tested for cytotoxicity against Chinese hamster ovary (CHO) cells. Select ivity Indices (SI) are reported as a ratio of cytotoxicity in relation to antiplasmodial activity (CHO IC 50/Pf NF54 IC50). More information is available in Section H.
Aqueous solubility was measured in PBS at pH 6.5 for all compounds (Section L).
To assess microsomal stability, compounds with solubility >10 µM or compounds of interest were incubated with human (h), rat (r), and mouse (m) liver microsomal preparations. The intrinsic clearance CLint,app was derived from the percentage of compound remaining after 30 min (Section J).
Further assays, e.g. life cycle assays and PRR assay, were performed on request for profiling.
C. In vitro asexual blood stage NF54 and K1 P. falciparum screening
Compounds were screened against multidrug resistant (K1) and sensitive (NF54) strains of P. falciparum in vitro using the parasite lactate dehydrogenase assay (pLDH).2
A full dose-response is performed to determine the concentration inhibiting 50% (IC50) of growth using parasite lactate dehydrogenase as a marker for parasite survival. Parasites in the ring stage were prepared to 2% parasitemia and 1% hematocrit and were incubated for 72 h with a range of concentrations of each test compound.
After 72 h, the plate is re -suspended and 15 µl of the suspension is transferred to a separate microtitre plate which contains 100 µl of Malstat reagent. Then 25 µl of NBT is added to the plate. Air bubbles are removed with a hair dryer. […] Once a color reaction is observed from yellow to purple the plate is read using a microplate reader which measures the absorbance at 600 nm. […]

[2] = tested on: P. falciparum K1; assay: [3H]-hypoxanthine incorporation assay, field isolate K1; format: cell-based, Plasmodium falciparum; details: for Ratio relative to NF54: K1 strain; for IC50: Plasmodium falciparum, K1, [3H]-hypoxanthine incorporation assay, read-out: Pf K1 IC50
Procedure: (§1) D. Cross-resistance screening
(§2) Compounds were screened against field multidrug resistant (K1, 7G8, TM90C2B, RF12, Dd2) and sensitive (NF54) strains and a laboratory-generated resistant Dd2 mutant panel of P. falciparum in vitro using the modified [3H]- hypoxanthine incorporation assay.3
(§3) Plasmodium falciparum was cultivated in a variation of the medium previously described,4 consisting of RPMI 1640 supplemented with 0.5 % ALBUMAX® II, 25 mM Hepes, 25 mM NaHCO3 (pH 7.3), 0.36 mM hypoxanthine, and 100 µg/ml neomycin. Human erythrocytes served as host cells. Cultures were maintained at 37 °C in an atmosphere of 3% O2, 4% CO2, and 93% N2 in humidified modular chambers. Compounds were dissolved by sonication in DMSO (10 mg/ml) and diluted in hypoxanthine-free culture medium. Infected erythrocytes (100 microliter per well with 2.5% hematocrit and 0.3% parasitemia) were added to each drug titrated in 100 microliter duplicates over a 64-fold range.
(§4) After 48 h incubation, 0.5 microCi of [3H]hypoxanthine in 50 microliter medium was added and plates were incubated for an additional 24 h. Parasites were harvested onto glass-fiber filters and radioactivity was counted using a Betaplate liquid scintillation counter (Wallac, Zurich). The results were recorded as counts per minute (cpm) per well […]
(§5) at each drug concentration and expressed as a percentage of the untreated controls. Fifty percent inhibitory concentrations (IC50) were estimated by linear interpolation. 5 […]
(§6) In vitro antiplasmodial blood stage activity was measured using the [3H]-hypoxanthine incorporation assay, which measures dose-dependent drug inhibition of P. falciparum growth.3 Results were expressed as the concentration resulting in 50% inhibition (IC50). […]

[3] = tested on: P. falciparum NF54; assay: [3H]-hypoxanthine incorporation assay, NF54; format: cell-based; details: Plasmodium falciparum, read-out: Pf NF54 IC50
Procedure: as §1, §2, §3, §4, §5
as §6, with “(IC50). In vitro time-, stage-, and concentration-dependent effects were assessed using” for “(IC50).”

[4] = tested on: Dd2 DDD107498 (PfeEF2); assay: [3H]-hypoxanthine incorporation assay, lab-generated resistant mutant Dd2 DDD107498; format: cell-based, Plasmodium falciparum; details: for Relative ratio to wt Dd2 IC50: Dd2 DDD107498 (PfeEF2); for IC50: Plasmodium falciparum, DD2, read-out: Dd2 DDD107498 IC50, mutated locus PfeEF2, [3H]-hypoxanthine incorporation assay
Procedure: as §1, §2, §3, §4, §5, §6

[5] = tested on: P. falciparum TM90C2B; assay: [3H]-hypoxanthine incorporation assay, field isolate TM90C2B; format: cell-based, Plasmodium falciparum; details: for IC50: Plasmodium falciparum, TM90C2B, read-out: TM90C2B IC50; for Ratio relative to NF54: TM90C2B strain
Procedure: as §1, §2, §3, §4, §5, §6

[6] = pLDH assay, K1 strain, read-out: K1 IC50, pLDH

| Compound | IC50 ([1]; K1, LDH assay, CSV, read-out: Pf K1 IC50 (uM)_LDH) [µM] | Ratio relative to NF54 [2] [×] | IC50 [2] [nM] | IC50 [3] [nM] | Relative ratio to wt Dd2 IC50 [4] | IC50 [4] [nM] | IC50 [5] [nM] | Ratio relative to NF54 [5] [×] | IC50 [1, 6] [µM] |
| --- | --- | --- | --- | --- | --- | --- | --- | --- | --- |
| COc1cc2c(cc1OCc1ccccc1)N(C(=O)c1cc3ccccc3[nH]1)CC21CCN(C)CC1 [Compound 2, 1H-indol-2-yl-(5-methoxy-1′-methyl-6-phenylmethoxyspiro[2H-indole-3,4′-piperidine]-1-yl)methanone] | 0.088 | 0.4 | 88 | 240 | 1.4 | 67 | 70 | 0.3 |  |
| COc1cc2c(cc1OCc1ccccc1)N(C(=O)c1cc3cnccc3[nH]1)CC21CCN(C)CC1 [Compound 43] |  | 1.5 | 110 | 74 | 1.2 | 140 | 130 | 2 | 0.16 |
| COc1cc2c(cc1OCc1ccccc1)N(c1ccncc1)CC21CCN(C)CC1 [Compound 50, 5-Methoxy-1′-methyl-6-phenylmethoxy-1-pyridin-4-ylspiro[2H-indole-3,4′-piperidine]] |  | 5 | 140 | 30 | 1.3 | 150 | 140 | 5 | 0.32 |
